Measured values: patent US5902787A, “Chemically modified a-macroglobulins, methods of making, and methods of using the same in anti-cytokine therapy” (The University of Virginia Patent Foundation, priority 1997, dated 1999)

Key:
interferon-γ = settings: literature (Wolf et al.); cited from earlier work
TNF-α [1] = settings: literature (Wolf et al.); read-out: KD, TNF-α binding to α2M; cited from earlier work
mice = test: Toxicity of IP human MAC in mice; assay type: in vivo; settings: 1.0, 2.5 or 5.0 mg IP, 5 days of observation
Method: Equivalent concentrations of human α2 M (native, unmodified form) were injected IP in separate animals, as a control. Each concentration of MAC or human α2 M was studied in duplicate. […] The animals were sacrificed after 5 days of observation.

[2] = test system: ciliary neurotrophic factor; settings: literature (Wolf et al.); cited from earlier work
TNF-α [3] = test: Nondenaturing PAGE binding of 125I-TNF-α to α2M forms; settings: 125I-TNF-α 1 nM, α2M preparation 1.0 μM, 1 h at 37° C
Method: Nondenaturing PAGE was performed on 5% slabs.
The incubation mixtures were then subjected to nondenaturing PAGE, a method that allows recovery of noncovalent as well as covalent α2 M-cytokine complexes. Gonias et al., Ann. […] The TNF-α was detected by autoradiography or Phosphor-Imager analysis.
Crookston et al, Wollenberg et at., Amer. J. Pathol.

LPS-challenged mice = test: LPS challenge, MAC pre-treatment, survival; assay type: in vivo, CD-1 female mice; settings: 2.5 mg IP 60 min prior to intravenous LPS
Method: Survival curves for LPS-challenged mice, with or without MAC pre-treatment.CD-5 female mice were injected EP with 2.5 mg MAC (.box-solid.) or an equivalent volume of PBS (.circle-solid.). After 60 min, the mice were anesthetized and 57 mg/kg LPS were injected intravenously. The mice were monitored for up to 5 days and then sacrificed. Survival data are presented in panel a. In panel b, mice were injected IP with 2.0 mg MAC (Δ), 1.0 mg MAC (.smallcircle.), or 2.5 mg of native human α2 M (.quadrature.). LPS was injected 60 min later.
CD-1 female mice were obtained from Charles River Breeding Laboratories. Animals were kept on a 12:12 h dark-light cycle. Mice were anesthetized with diethyl ether prior to intravenous injections of LPS. All animals were observed on a continuous basis. Those entering a moribund condition were euthanized by cervical dislocation under anesthesia.

Molecule | binding of interferon-γ to α2M (interferon-γ) | Kd (TNF-α [1]) [µM] | tolerability (neurologic status, respiratory rate, eating and drinking, general behavior) (mice) | binding of ciliary neurotrophic factor to α2M [2] | binding of 125I-TNF-α (nondenaturing PAGE) (TNF-α [3]) | animals that died within 24 h (deaths/total) (LPS-challenged mice)
native human α2 M: α2-macroglobulin purified from human plasma, native unmodified form | do not bind | 5 to 10 | without outward changes in physiology | do not bind | not detected | 4/4
native murine α2 M: α2-macroglobulin purified from the plasma of CD-1 female mice, native form (protein, UniProt Q61838 25-1495, looked up) Pregnancy zone protein: ATAKPQYVVLVPSEVYSGVPEKACVSLNHVNETVMLSLTLEYAMQQTKLLTDQAVDKDSFYCSPFTISGSPLPYTFITVEIKGPTQRFIKKKSIQIIKAESPVFVQTDKPIYKPGQIVKFRVVSVDISFRPLNETFPVVYIETPKRNRIFQWQNIHLAGGLHQLSFPLSVEPALGIYKVVVQKDSGKKIEHSFEVKEYVLPKFEVIIKMQKTMAFLEEELPITACGVYTYGKPVPGLVTLRVCRKYSRYRSTCHNQNSMSICEEFSQQADDKGCFRQVVKTKVFQLRQKGHDMKIEVEAKIKEEGTGIELTGIGSCEIANALSKLKFTKVNTNYRPGLPFSGQVLLVDEKGKPIPNKNITSVVSPLGYLSIFTTDEHGLANISIDTSNFTAPFLRVVVTYKQNHVCYDNWWLDEFHTQADHSATLVFSPSQSYIQLELVFGTLACGQTQEIRIHYLLNEDIMKNEKDLTFYYLIKARGSIFNLGSHVLSLEQGNMKGVFSLPIQVEPGMAPEAQLLIYAILPNEELVADAQNFEIEKCFANKVNLSFPSAQSLPASDTHLKVKAAPLSLCALTAVDQSVLLLKPEAKLSPQSIYNLLPGKTVQGAFFGVPVYKDHENCISGEDITHNGIVYTPKHSLGDNDAHSIFQSVGINIFTNSKIHKPRFCQEFQHYPAMGGVAPQALAVAASGPGSSFRAMGVPMMGLDYSDEINQVVEVRETVRKYFPETWIWDLVPLDVSGDGELAVKVPDTITEWKASAFCLSGTTGLGLSSTISLQAFQPFFLELTLPYSVVRGEAFTLKATVLNYMSHCIQIRVDLEISPDFLAVPVGGHENSHCICGNERKTVSWAVTPKSLGEVNFTATAEALQSPELCGNKLTEVPALVHKDTVVKSVIVEPEGIEKEQTYNTLLCPQDTELQDNWSLELPPNVVEGSARATHSVLGDILGSAMQNLQNLLQMPYGCGEQNMVLFVPNIYVLNYLNETQQLTEAIKSKAINYLISGYQRQLNYQHSDGSYSTFGNHGGGNTPGNTWLTAFVLKAFAQAQSHIFIEKTHITNAFNWLSMKQKENGCFQQSGYLLNNAMKGGVDDEVTLSAYITIALLEMPLPVTHSAVRNALFCLETAWASISQSQESHVYTKALLAYAFALAGNKAKRSELLESLNKDAVKEEDSLHWQRPGDVQKVKALSFYQPRAPSAEVEMTAYVLLAYLTSESSRPTRDLSSSDLSTASKIVKWISKQQNSHGGFSSTQDTVVALQALSKYGAATFTRSQKEVLVTIESSGTFSKTFHVNSGNRLLLQEVRLPDLPGNYVTKGSGSGCVYLQTSLKYNILPVADGKAPFALQVNTLPLNFDKAGDHRTFQIRINVSYTGERPSSNMVIVDVKMVSGFIPMKPSVKKLQDQPNIQRTEVNTNHVLIYIEKLTNQTLGFSFAVEQDIPVKNLKPAPIKVYDYYETDEFTVEEYSAPFSDGSEQGNA |  |  |  |  | the level of binding was low | 
